From patent US9242960B2, “P38MAP kinase inhibitors” (Respivert Ltd., priority 2009, dated 2016)

Key:
[1] = tested on: bronchoconstrictor response to ovalbumin challenge (sGaw); test: Ovalbumin challenge/parainfluenza infection model; assay type: in vivo, guinea-pigs; settings: 1.5 mg per day nebulised, sensitized animals treated with PIV3 medium (initial studies)
[2] = tested on: neutrophil and macrophage accumulation into airways; test: Cigarette smoke model; assay type: in vivo, A/J mice; set-up: dose or concentration left out as unconfirmed; settings: (35 μl, bid, in)
Experimental: A/J mice (males, 5 weeks old) were exposed to cigarette smoke (4% cigarette smoke, diluted with compressed air) for 30 min/day for 11 days using a Tobacco Smoke Inhalation Experiment System for small animals (Model SIS-CS; Sibata Scientific Technology, Tokyo, Japan). Test substances were given intra-nasally (35 μl of solution in 50% DMSO/PBS) and therapeutically twice daily for 3 days after the final cigarette smoke exposure. Twelve hours after the last dosing, animals were anesthetized, the trachea cannulated and bronchoalveolar lavage fluid (BALF) was collected. The numbers of alveolar macrophages and neutrophils were determined by FACS analysis (EPICS® ALTRA II, Beckman Coulter, Inc., Fullerton, Calif., USA) using anti-mouse MOMA2 antibody (macrophage) or anti-mouse 7/4 antibody (neutrophil).

BEAS2B cells [3] = test: Rhinovirus-induced ICAM-1 expression in BEAS2B cells; assay type: cell-based, human
[4] = tested on: differentiated U937 cells; test: LPS-induced IL-8 release in differentiated U937 cells; assay type: cell-based, human
Experimental: U937 cells, human monocytic cell line, were differentiated to macrophage-type cells by incubation with phorbol myristate acetate (PMA; 100 ng/ml) for 48 to 72 hours. Cells were pre-incubated with final concentrations of compound for 2 hrs. Cells were then stimulated with 0.1 μg/ml of LPS (from E. Coli: O111:B4, Sigma) for 4 hrs, and the supernatant collected for determination of the IL-8 concentration by sandwich ELISA (Duo-set, R&D systems).

BEAS2B cells [5] = test: Poly I:C-induced ICAM-1 induction in BEAS2B cells; assay type: cell-based, human; settings: at 10 ug/ml
Experimental: Poly I:C (1 ug/ml) (Invivogen Ltd., San Diego, Calif.) was transfected into BEAS2B cells (human bronchial epithelial cells, ATCC) with Oligofectamine (Invitrogen, Carlsbad, Calif.). Cells were pre-incubated with final concentrations of compound for 2 hrs. The level of ICAM1 expression on the cell surface was determined by cell-based ELISA. Briefly, at 18 hrs after poly I:C transfection, cells were fixed with 4% formaldehyde in PBS. After quenching endogenous peroxidase by adding 0.1% sodium azide and 1% hydrogen peroxide, cells were washed with wash-buffer (0.1% Tween in PBS: PBS-Tween). After blocking the wells with 5% milk in PBS-Tween for 1 hr, the cells were incubated with anti-human ICAM-1 antibody (Cell Signaling Technology, Danvers, Mass.) in 1% BSA PBS overnight at 4° C. Cells were washed with PBS-Tween and incubated with the secondary antibody (HRP-conjugated anti-rabbit IgG, Dako Ltd., Glostrup, Denmark).

[6] = tested on: differentiated U937 cells; test: LPS-induced TNFα release in differentiated U937 cells; assay type: cell-based; settings: Homo sapiens, U-937, read-out: IC50 Values LPS-induced TNFα release d-U937 cells
Experimental: (§1) U937 cells, human monocytic cell line, were differentiated to macrophage-type cells by incubation with phorbol myristate acetate (PMA; 100 ng/ml) for 48 to 72 hr. Where appropriate, cells were pre-incubated with final concentrations of compound for 2 hr. Cells were then stimulated with 0.1 μg/ml of LPS (from E. Coli: O111:B4, Sigma) for 4 hr, and the supernatant collected for determination of TNFα concentration by sandwich ELISA (Duo-set, R&D systems). […] THP-1, human monocytic cell line, was also used for this assay. THP-1 cells were stimulated with 3 μg/ml of LPS (from E. Coli: O111:B4, Sigma) for 4 hr, and the supernatant collected for determination of TNFα concentration.

THP-1 cells = test: LPS-induced TNFα release in THP-1 cells; assay type: cell-based; settings: Homo sapiens, read-out: IC50 Values LPS-induced TNFα release THP1 cells
Experimental: as §1

BEAS2B cells [7] = test: Rhinovirus-induced IL-8 release in BEAS2B cells; assay type: cell-based, human
[8] = tested on: Human rhinovirus RV16 (HRV); test: Rhinovirus-titre assay in MRC5 cells; assay type: cell-based; settings: concentration range up to 1.9 μM
Experimental: All titrations were performed by infecting confluent Hela cell monolayers with serially diluted supernantant (10^−1 to 10^−5) and assessing cytopathetic effect by MTT assay 4 days after infection. The amount of virus required to infect 50% of Hela cells was calculated in each treatment as TCID50 U/mL. Compounds were added 24 and 2 hr before HRV infection and 1 hr after infection when non-infected HRV was washed out.

sputum macrophages = test: Sputum macrophage assay (LPS-induced IL-8 release); assay type: cell-based, human

Row | Compound | ovalbumin-mediated lung function changes [1] | macrophage accumulation into airways [2] | neutrophil accumulation into airways [2] | IC50 Values BEAS2B cells Rhinovirus-induced ICAM expression (BEAS2B cells [3]) | maximum inhibition of LPS-induced IL-8 release in differentiated U937 cells [4] | effect on poly I:C induced ICAM1 expression in BEAS2B cells (BEAS2B cells [5]) | IC50 [6] | IC50 (THP-1 cells) | IC50 Values BEAS2B cells Rhinovirus-induced IL-8 release (BEAS2B cells [7]) | effect on viral replication [8] | IC50 Values Sputum macrophages LPS-induced IL-8 release (sputum macrophages)
1 | CCC(=O)O[C@]1(C(=O)SCF)[C@H](C)C[C@H]2[C@@H]3C[C@H](F)C4=CC(=O)C=C[C@]4(C)[C@@]3(F)[C@@H](O)C[C@@]21C [fluticasone propionate] | inhibited | did not inhibit | did not inhibit | – | – | – | – | – | – | – | –
2 | Cc1ccc(-n2nc(C(C)(C)C)cc2NC(=O)Nc2ccc(OCCN3CCOCC3)c3ccccc23)cc1 [BIRB796] | – | – | – | NSE @ 1.9 μM | 31% | no effect | 20 nM | 12 nM | NSE @ 1.9 μM | without effect | NSE @ 19 μM
